From the supplement of paper PMC10307832

Assays:
Assay in all cases: relative viability (nuclei count vs DMSO), 5 days (fraction); higher = more cells survive
BAY61-3606 = compound: COC1=C(C=C(C=C1)C2=CC3=NC=CN3C(=N2)NC4=C(C=CC=N4)C(=O)N)OC [BAY61-3606]
In short: (§1)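 Hoechst staining, done together with fixation and permeabilisation, marked nuclei for 4× imaging and MetaXpress counting. This followed 5 days without medium change after lung cancer cell lines, kept overnight at 37 °C in 1536-well plates, were pinned with five library-drug doses (not always all listed) spaced by √10 on vehicle-anchored plates. Viability is the ratio of treated-well to vehicle-well nuclei, expressed as a median across plates. Plates passed only at control CV below 25% with at least one doubling.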

Doxorubicin = compound: COc1cccc2c1C(=O)c1c(O)c3c(c(O)c1C2=O)C[C@@](O)(C(=O)CO)C[C@@H]3O[C@H]1C[C@H](N)[C@H](O)[C@H](C)O1 [Doxorubicin]
In short: as §1

BAY61-3606 + Navitoclax = compound: COC1=C(C=C(C=C1)C2=CC3=NC=CN3C(=N2)NC4=C(C=CC=N4)C(=O)N)OC [BAY61-3606] + CC1(C)CCC(c2ccc(Cl)cc2)=C(CN2CCN(c3ccc(C(=O)NS(=O)(=O)c4ccc(N[C@H](CCN5CCOCC5)CSc5ccccc5)c(S(=O)(=O)C(F)(F)F)c4)cc3)CC2)C1 [Navitoclax] (partner 0.5 µM)
In short: (§2)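 Lung cancer cell lines in 1536-well plates got either a single drug or a fixed anchor-drug dose together with five library-drug doses (not always all listed) in √10 steps, by pin tool, on the day after seeding. Nuclei were counted after 5 days, and relative viability is the treated-to-vehicle ratio of nuclei counts. Values are medians of duplicate plates.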

Doxorubicin + Phenformin = compound: COc1cccc2c1C(=O)c1c(O)c3c(c(O)c1C2=O)C[C@@](O)(C(=O)CO)C[C@@H]3O[C@H]1C[C@H](N)[C@H](O)[C@H](C)O1 [Doxorubicin] + N=C(N)NC(=N)NCCc1ccccc1 [Phenformin] (partner 250 µM)
In short: as §2

Cell Line | relative viability (BAY61-3606; 0.02 µM) | relative viability (BAY61-3606; 0.06325 µM) | relative viability (BAY61-3606; 0.2 µM) | relative viability (BAY61-3606; 0.6325 µM) | relative viability (BAY61-3606; 2 µM) | relative viability (Doxorubicin; 0.001 µM) | relative viability (Doxorubicin; 0.003162 µM) | relative viability (Doxorubicin; 0.01 µM) | relative viability (Doxorubicin; 0.03162 µM) | relative viability (Doxorubicin; 0.1 µM) | relative viability (BAY61-3606 + Navitoclax; first compound 0.02 µM) | relative viability (BAY61-3606 + Navitoclax; first compound 0.06325 µM) | relative viability (BAY61-3606 + Navitoclax; first compound 0.2 µM) | relative viability (BAY61-3606 + Navitoclax; first compound 0.6325 µM) | relative viability (BAY61-3606 + Navitoclax; first compound 2 µM) | relative viability (Doxorubicin + Phenformin; first compound 0.001 µM) | relative viability (Doxorubicin + Phenformin; first compound 0.003162 µM) | relative viability (Doxorubicin + Phenformin; first compound 0.01 µM) | relative viability (Doxorubicin + Phenformin; first compound 0.03162 µM) | relative viability (Doxorubicin + Phenformin; first compound 0.1 µM)
EMC-BAC-2 | 1.04 | 1 | 0.921 | 0.988 | 0.942 | 1.34 | 0.844 | 0.748 | 0.469 | 0.326 | 1.21 | 1.21 | 1.16 | 1.24 | 1.19 | 0.621 | 0.462 | 0.416 | 0.265 | 0.206
LXF-289 | 0.95 | 1.07 | 0.874 | 1.04 | 1.05 | 0.952 | 1.03 | 1.01 | 1.05 | 1.01 | 0.887 | 1.05 | 0.952 | 0.981 | 1.01 | 0.432 | 0.545 | 0.498 | 0.504 | 0.495
NCI-H1355 | 1.08 | 0.916 | 0.937 | 0.961 | 0.882 | 0.888 | 1.04 | 1.01 | 0.989 | 1.01 | 1.08 | 0.962 | 0.865 | 0.995 | 0.721 | 0.423 | 0.488 | 0.465 | 0.449 | 0.416
NCI-H3122 | 1.02 | 1 | 0.985 | 1.01 | 0.961 | 0.946 | 1.01 | 0.908 | 0.876 | 0.92 | 0.975 | 0.962 | 1.05 | 1 | 0.987 | 0.369 | 0.365 | 0.337 | 0.245 | 0.148
NCI-H2009 | 1.06 | 1.03 | 0.997 | 0.989 | 0.894 | 0.99 | 1.01 | 0.94 | 0.843 | 0.504 | 1.14 | 1.22 | 1.14 | 1.15 | 1.11 | 0.483 | 0.482 | 0.481 | 0.414 | 0.275
NCI-H520 | 1.07 | 1.06 | 1.07 | 1.12 | 1.05 | 0.901 | 1.03 | 0.939 | 0.799 | 0.822 | 1.29 | 1.11 | 1.24 | 1.1 | 1.04 | 0.626 | 0.531 | 0.611 | 0.465 | 0.347
SW 1573 | 1.04 | 1.03 | 0.905 | 1 | 0.659 | 0.876 | 0.914 | 0.539 | 0.364 | 0.292 | 0.84 | 0.918 | 0.832 | 0.97 | 0.683 | 0.337 | 0.355 | 0.216 | 0.111 | 0.0738
HARA | 1.03 | 0.927 | 0.945 | 0.953 | 0.866 | 0.983 | 1.12 | 1.07 | 0.945 | 0.955 | 1.2 | 1.12 | 1.16 | 1.1 | 1.02 | 0.424 | 0.616 | 0.444 | 0.409 | 0.439
NCI-H2126 | 1.07 | 0.931 | 0.944 | 1.05 | 0.915 | 0.946 | 1 | 0.97 | 0.914 | 1.01 | 0.88 | 0.823 | 0.769 | 0.759 | 0.742 | 0.556 | 0.531 | 0.475 | 0.299 | 0.273
NCI-H1915 | 0.993 | 0.996 | 0.826 | 1.01 | 0.786 | 0.955 | 1.03 | 0.966 | 1.03 | 1.01 | 0.775 | 0.779 | 0.715 | 0.755 | 0.765 | 0.354 | 0.355 | 0.367 | 0.375 | 0.353
ChaGo-K-1 | 0.97 | 0.942 | 0.918 | 0.949 | 0.945 | 1.06 | 1.09 | 0.923 | 0.892 | 0.563 | 1.18 | 0.822 | 0.946 | 0.666 | 0.983 | 0.438 | 0.522 | 0.503 | 0.363 | 0.223
PC-14 | 1.07 | 1.04 | 0.916 | 0.992 | 0.877 | 0.974 | 1.05 | 1.01 | 0.789 | 0.52 | 1.04 | 1.11 | 0.983 | 1.01 | 0.982 | 0.421 | 0.629 | 0.709 | 0.284 | 0.213
COR-L23 | 1.05 | 1.09 | 1.06 | 1 | 0.909 | 0.998 | 1.05 | 0.932 | 0.718 | 0.235 | 1.06 | 1.1 | 1.02 | 1.11 | 0.813 | 0.422 | 0.501 | 0.43 | 0.224 | 0.131
COR-L 105 | 0.932 | 0.892 | 0.951 | 0.852 | 0.568 | 0.951 | 0.853 | 0.827 | 0.706 | 0.503 | 0.79 | 0.714 | 0.624 | 0.812 | 0.409 | 0.57 | 0.533 | 0.434 | 0.295 | 0.286
LK-2 | 1.08 | 0.939 | 1.06 | 1.09 | 0.923 | 0.903 | 1.08 | 0.829 | 0.788 | 1.08 | 0.927 | 0.963 | 0.925 | 0.896 | 0.705 | 0.31 | 0.328 | 0.388 | 0.33 | 0.351
